Laboratory results published in patent publication US7563621B2, “Absorbing organic reagents into diagnostic test devices by formation of amine salt complexes” (Siemens Healhcare Diagnostics Inc, priority 2003, dated 2009).

Test: Butanol/water partitioning of dye salts (Example 2)
Conditions: for Absorbance of Base in Butanol: butanol layer; for Partition Ratio of Butanol Absorbance to Water Absorbance: corrected by intensity factor; for Intensity Factor (IF): reference absorbance in water / in butanol; for Absorbance of Base in Water: water layer
[1] = 8-anilino-1-sulfonic acid salts
[2] = 8-anilino-1-sulfonic acid salts, λmax 269 nm
[3] = 8-anilino-1-sulfonic acid salts, λmax 265 nm
[4] = bromocresol green salts, λmax 630 nm
[5] = bromocresol green salts, λmax 615 nm

Protocol: The five dye solutions were then treated with 1 equivalent of each base listed in Tables 1-5 (i.e., sodium hydroxide, TRIS, and triethylamine) to form salt solutions (i.e., sodium salt solutions, TRIS salt solutions, and triethylamine salt solutions respectively).
A 50 μL portion of each salt solution was then mixed with 950 μL water and 1000 μL butanol. […] Where necessary to deal with lingering interface phases, the samples were centrifuged.
Tests were then performed on the respective salt solutions to determine whether the salts of the respective dyes dissolved preferentially in butanol (a more lipophilic solvent) or water (a less lipophilic solvent). […] Spectroscopy versus the butanol blank or the water blank was done as 50 μL upper (butanol) or lower (aqueous) phase plus 950 μL corresponding solvent. All absorbances were blanked on solvent in a quartz cuvette and were baseline corrected at an absorbance of 900 nm before subsequent calculations to correct for cuvette placement, dust, etc. All absorbances were then measured at the wavelengths noted below.
Before determining the butanol to water absorbance levels, the absorbance of the solute in butanol was corrected for solvent dependent shifts in wavelength maximum and intensity based on the reference spectra of known gravimetric quantities of the dye salts in butanol and water. For such cases, the partition ratio of butanol absorbance to water absorbance was calculated using the following formula: Partition Ratio=Sample Absorbance in Butanol×Intensity Factor/Sample Absorbance in Water where the intensity factor was calculated using the following formula: Intensity Factor=Reference Sample Absorbance at λmax in water/Reference Sample Absorbance at λmax in butanol The intensity factor adjusts for those cases where the same concentration of dye in the two different solvents produced two different absorbances.

| Compound | Raw Ratio of Butanol Absorbance to Water Absorbance [1] | Absorbance of Base in Butanol [2] | Partition Ratio of Butanol Absorbance to Water Absorbance [1] | Intensity Factor (IF) [1] | Absorbance of Base in Water [3] | Raw Ratio of Butanol Absorbance to Water Absorbance (bromocresol green salts) | Absorbance of Base in Butanol [4] | Partition Ratio of Butanol Absorbance to Water Absorbance (bromocresol green salts) | Intensity Factor (IF) (bromocresol green salts) | Absorbance of Base in Water [5] | Raw Ratio of Butanol Absorbance to Water Absorbance (erythrosin salts) | Absorbance of Base in Butanol (erythrosin salts, λmax 536 nm) | Partition Ratio of Butanol Absorbance to Water Absorbance (erythrosin salts) | Intensity Factor (IF) (erythrosin salts) | Absorbance of Base in Water (erythrosin salts, λmax 528 nm) |
| --- | --- | --- | --- | --- | --- | --- | --- | --- | --- | --- | --- | --- | --- | --- | --- |
| O=S(=O)(O)c1cccc2cccc(Nc3ccccc3)c12 [8-Anilino-1-Sulfonic Acid, Sodium Hydroxide] [reference compound] | 1.9 | 0.121 | 1.8 | 0.98 | 0.065 | – | – | – | – | – | – | – | – | – | – |
| O=S(=O)(O)c1cccc2cccc(Nc3ccccc3)c12 [8-Anilino-1-Sulfonic Acid, TRIS, 8-anilino-1-sulfonic acid] | 2.6 | 0.129 | 2.3 | 0.89 | 0.050 | – | – | – | – | – | – | – | – | – | – |
| O=S(=O)(O)c1cccc2cccc(Nc3ccccc3)c12 [8-Anilino-1-Sulfonic Acid, Triethylamine, 8-anilino-1-sulfonic acid] | 3.4 | 0.156 | 3.5 | 1.01 | 0.045 | – | – | – | – | – | – | – | – | – | – |
| CC1=C(Br)C(=O)C(Br)=C/C1=C(/c1ccccc1S(=O)(=O)O)c1cc(Br)c(O)c(Br)c1C [Bromocresol Green, Sodium Hydroxide, bromocresol green, reference compound] | – | – | – | – | – | 1.8 | 0.315 | 1.9 | 1.03 | 0.175 | – | – | – | – | – |
| CC1=C(Br)C(=O)C(Br)=C/C1=C(/c1ccccc1S(=O)(=O)O)c1cc(Br)c(O)c(Br)c1C [Bromocresol Green, TRIS, bromocresol green] | – | – | – | – | – | 1.7 | 0.250 | 4.2 | 2.47 | 0.146 | – | – | – | – | – |
| CC1=C(Br)C(=O)C(Br)=C/C1=C(/c1ccccc1S(=O)(=O)O)c1cc(Br)c(O)c(Br)c1C [Bromocresol Green, Triethylamine, bromocresol green] | – | – | – | – | – | 2.4 | 0.237 | 6.3 | 2.58 | 0.097 | – | – | – | – | – |
| O=C(O)c1ccccc1-c1c2cc(I)c(=O)c(I)c-2oc2c(I)c(O)c(I)cc12 [Erythrosin, Sodium Hydroxide, erythrosin B, reference compound] | – | – | – | – | – | – | – | – | – | – | 0.41 | 0.237 | 0.38 | 0.93 | 0.574 |
| O=C(O)c1ccccc1-c1c2cc(I)c(=O)c(I)c-2oc2c(I)c(O)c(I)cc12 [Erythrosin, TRIS, erythrosin B] | – | – | – | – | – | – | – | – | – | – | 0.31 | 0.196 | 0.28 | 0.90 | 0.631 |
| O=C(O)c1ccccc1-c1c2cc(I)c(=O)c(I)c-2oc2c(I)c(O)c(I)cc12 [Erythrosin, Triethylamine, erythrosin B] | – | – | – | – | – | – | – | – | – | – | 0.40 | 0.240 | 0.42 | 1.04 | 0.596 |
